{"source": "patent US20160052918A1", "about": "“SMALL COMPOUNDS TARGETING TACC3” (JAPANESE FOUNDATION FOR CANCER RESEARCH, priority 2012, published 2016)", "format_in_all_cases": "cell-based", "key": {"[1]": {"system": "SKOV-3 cells expressing EGFP-α-tubulin", "experiment": "Mitotic arrest of synchronized EGFP-α-tubulin-expressing SKOV-3 cells, time-lapse single-cell analysis", "experimental": "The EGFP-α-tubulin-expressing cells used in the assay will be described. In order to observe mitosis under a fluorescence microscope, cells expressing EGFP-α-tubulin (fusion protein of a fluorescent protein, EGFP, and α-tubulin) were prepared. A system observable under a fluorescence microscope without cell fixation was prepared.\nOvary cancer cells SKOV-3 were cultured in an RPMI1640 medium supplemented with 5% fetal bovine serum. Stable cells expressing EGFP-α-tubulin were transduced by lentiviral transduction using pLenti4/V5-DEST vectors (Registered Trade Mark) (manufactured by Invitrogen Corp.) and selected by the FACS sorting of infected cells using Zeocin (Registered Trade Mark) and subsequent FACSAria (Registered Trade Mark) (Becton, Dickinson and Company).\nThe compounds NPD2448, NPD2568, NPD3574, NPD4089, and C7—O-propylated NPD3574 were each added at varying concentrations to the culture medium of SKOV-3 cells expressing EGFP-α-tubulin and analyzed for their effect on cell division.\nThe SKOV-3 cells expressing EGFP-α-tubulin were synchronized by thymidine block to analyze the effect on cell division of each compound. As shown in the upper part of FIG. 2, each compound was added to the culture medium after the 1st thymidine block. After synchronization by the second thymidine block, images were taken every 2 minutes for 3 days using Leica AF6000 and ×20/0.5 Plan Fluotar objective lens in a phenol red-free RPMI1640 medium supplemented with 5% fetal bovine serum. These time-lapse images were analyzed using ImageJ 1.42a software, and the time of mitotic arrest was determined by visual judgment. The duration of mitosis was manually determined from the image sequences of at least 50 cells.\nThe mitotic arrest (EC50=50% arrest rate) was tested by the microscopic analysis of individual single cells.\nEGFP-α-tubulin-expressing SKOV-3 cells synchronized by double thymidine block in the same way as in Example 2 were treated with each synthesized compound and subjected to time-lapse photography for 3 days. At least 50 cells were observed. The time of arrest of each cell was calculated, and EC50 was determined therefrom.\nEGFP-α-tubulin-expressing SKOV-3 cells supplemented with each of SPL-A and SPL-B at varying concentrations were synchronized by double thymidine block in the same way as in Example 2. Analysis based on single cells was conducted by time-lapse photography. The duration of mitosis was measured from the image sequences of at least 50 cells."}, "[2]": {"system": "SKOV-3 cells expressing EGFP-α-tubulin", "experiment": "Cell fate determination by time-lapse photography, SKOV-3", "conditions": "13.3 μg/ml SPL-A or 2.7 μg/ml SPL-B", "experimental": "(§1) The cells used were SKOV-3 cells and OVCAR-3 cells expressing EGFP-α-tubulin.\n(§2) The OVCAR-3 cells expressing EGFP-α-tubulin were obtained using the same procedure as that for the SKOV-3 cells expressing EGFP-α-tubulin. The cells supplemented with each of SPL-A and SPL-B were synchronized by double thymidine block in the same way as in Example 2. Images were obtained by time-lapse photography and analyzed. The cells of each line were treated with 13.3 μg/ml SPL-A or 2.7 μg/ml SPL-B. The cell fate was manually determined from the image sequence of at least 50 cells with the time point of nuclear envelope breakdown defined as 0."}, "OVCAR-3 cells": {"system": "OVCAR-3 cells", "experiment": "Abnormal spindle morphology by immunostaining, OVCAR-3", "conditions": "24 hours", "experimental": "(§3) SPL-A was added at each concentration to the SKOV-3 or OVCAR-3 cells. Twenty four hours after incubation, the cells were fixed and immunostained using antibodies against cell division-related substances such as α-tubulin described below. The percentage of spindle morphology was determined from at least 50 cells. The data was indicated by a mean of three independent experiments and SD.\n(§4) The immunostaining was carried out by the following method: the cells were fixed in 3.7% PFA, methanol, or 10% TCA on a chamber slide, then permeabilized with 0.2% Triton-X100 in PBS, and incubated with primary antibodies. A monoclonal antibody (DM1A) against α-tubulin and monoclonal antibodies (DQ19 and GTU-88) against γ-tubulin were obtained from Sigma-Aldrich Corp. An anti-centrin 2 antibody (sc-27793) was purchased from Santa Cruz Biotechnology, Inc. Fluorescent labelled goat anti-mouse IgG (Cappel) and Cy3 labelled goat anti-rabbit IgG (Millipore) antibodies were used as secondary antibodies. DNA was detected using 4,6-diamidino-2-phenylindole (DAPI). Images were obtained using Leica DM6000B microscope equipped with ×100/1.40-0.70 PlanApo objective lens and Z-projections.\n(§5) FIGS. 5A and B show the results of analyzing spindle morphology. The percentage of spindle morphology was indicated by the percentage (%) of normal, multipolar, disorganized, or monopolar spindles to the number of mitotic cells. […]"}, "[3]": {"system": "normal cell lines hTERT-RPE, MCF 10A, and 184B5", "experiment": "G2/M-phase cells by PI flow cytometry, normal cell lines", "conditions": "3 normal cell lines, 24 hours, FIG. 10", "experimental": "(§6) (A) Two cancer cell lines SKOV-3 and OVCAR-3 and three normal cell lines hTERT-RPE, MCF 10A, and 184B5 were treated with SPL-A at concentrations shown in the abscissa of FIG. 10A for 24 hours, then stained with propidium iodide (PI), and analyzed by flow cytometry.\n(§7) The same two cancer cell lines and three normal cell lines as in (A) were treated with each of paclitaxel, vincristine, and vinblastine acting on microtubule formation, S-trityl-L-cysteine (STLC) and SB743921 acting on proteins involved in mitosis, an Aurora kinase inhibitor VX680, and a polo-like kinase (PLK) inhibitor BI2536 at concentrations shown in the abscissa of FIG. 10B for 24 hours, then stained with propidium iodide (PI), and analyzed by flow cytometry."}, "[4]": {"system": "OVCAR-3 cells expressing EGFP-α-tubulin", "experiment": "Cell fate determination by time-lapse photography, OVCAR-3", "conditions": "13.3 μg/ml SPL-A or 2.7 μg/ml SPL-B", "experimental": "as §1, §2"}, "SKOV-3 cells": {"system": "SKOV-3 cells", "experiment": "Abnormal spindle morphology by immunostaining, SKOV-3", "conditions": "24 hours", "experimental": "as §3, §4, §5"}, "mouse lymphoma cell line": {"system": "mouse lymphoma cell line", "experiment": "Cell death of lymphoma (survival rate, WST-1)", "conditions": "72 h, IC50=50% survival rate, three days", "experimental": "The synthesized compounds were analyzed for their activity against cell death induction using a mouse lymphoma cell line (see Non Patent Literature 12), which was a cell line derived from thymic lymphoma developed in p53KO mouse.\nThe number of the lymphoma cells was adjusted to 1.2×10^5 cells/ml. The cells were inoculated at a concentration of 50 μl/well to a 96-well culture dish. A medium containing each RT compound as the novel compound of the present invention at twice the concentration of 50 μl was further added thereto (final concentration: 0.021 to 13.3 μg/ml). Three days after cultivation, the survival rate was calculated using WST-1 reagent (manufactured by F. Hoffmann-La Roche, Ltd.)."}, "[5]": {"system": "cancer cell lines SKOV-3 and OVCAR-3", "experiment": "G2/M-phase cells by PI flow cytometry, cancer cell lines", "conditions": "two cancer cell lines, 24 hours, FIG. 10", "experimental": "as §6, §7"}}}
{"smiles": "O=c1cc(-c2cc3ccccc3oc2=O)c2ccc(O)c(CN3CCC(CCO)CC3)c2o1", "note": "[RT-011]", "values": [{"measurement": "concentration at which mitotic arrest was induced", "setting": "[1]; Example 5, FIG. 3, final concentrations", "result": 2.667, "unit": "µg/mL"}, {"measurement": "EC50", "setting": "[1]; Homo sapiens, SK-OV-3, 72 h, mitotic arrest, EC50=50% arrest rate, double thymidine block, time-lapse 3 days, at least 50 cells, read-out: SKOV3 EC50", "result": 0.79, "unit": "µg/mL"}, {"measurement": "inhibitory effects on cell growth", "setting": "[1]; summary of Table 2 (SKOV-3 mitotic arrest and lymphoma cell death)", "result": "remarkable inhibitory effects on cell growth"}, {"measurement": "cell fate of most cells", "setting": "[2]", "result": "mitotic slippage"}, {"measurement": "percentage of cells with multipolar spindles", "setting": "OVCAR-3 cells; OVCAR-3, 1.25 μg/ml", "result": 44.0, "unit": "%"}, {"measurement": "percentage of cells with disorganized spindles", "setting": "OVCAR-3 cells; OVCAR-3, 2.5 μg/ml", "result": 57.3, "unit": "%"}, {"measurement": "inhibitory effect on cell division", "setting": "[3]", "result": "no inhibitory effect on cell division"}, {"measurement": "cell fate of most cells", "setting": "[4]", "result": "mitotic death"}, {"measurement": "percentage of cells with multipolar spindles", "setting": "SKOV-3 cells; SKOV-3, 1.25 μg/ml", "result": 53.3, "unit": "%"}, {"measurement": "percentage of cells with disorganized spindles", "setting": "SKOV-3 cells; SKOV-3, 5 μg/ml", "result": 56.7, "unit": "%"}, {"measurement": "IC50", "setting": "mouse lymphoma cell line", "result": 2.15, "unit": "µg/mL"}, {"measurement": "percentage of G2/M-phase cells / cell division", "setting": "[5]", "result": "increased the percentage of G2/M-phase cells in a concentration-dependent manner"}]}
